# Tests used:
# NCl-H292 (EGFR_WT) = molecular target: T1, NCl-H292 (EGFR_WT) (Homo sapiens, UniProt P00533); experiment: EGFR degradation assay (western blot), NCl-H292 cells; assay type: cell-based; details: Table 5; NCI-H292 cells (EGFR_WT), 24 h
# T1 construct: endogenous in cells; host or cells: A431, NCI-H2073, NCI-H292
# Experimental: A431 (EGFR_WT), NCl-H2073 (EGFR_WT), NCl-H292 (EGFR_WT), BaF3_YVAM (Her2_A775insYVAM), BaF3_SVD (EGFR_D770insSVD), BaF3_ASV (EGFR_A776inASV), or BaF3_DTC (EGFR_Exon19del/T790M/C797S) cells were seeded in a 24-well plate at a density of 4×10^5 cells per well for EGFR WT cells and 8× cells per well for EGFR or Her2 mutant cells, and the plates were incubated overnight. The cells were treated with the desired compounds for 24 h. The culture medium was removed, and 100 μL of RIPA buffer (Beyotime, P0013B) containing 1% Protease Inhibitor Cocktail (Bimake, B14001), 1% Phosphatase Inhibitor Cocktail 2 (Sigma, P5726), and 1% Phosphatase Inhibitor Cocktail 3 (Sigma, P0044) were added to lyse the cells. Then, the cell lysates were transferred to 1.5 mL microcentrifuge tubes and centrifuged at 12,000 rpm and 4° C. for 30 min. The supernatants were transferred into new tubes, and the protein concentration was determined using the BCA protein quantification method. All samples were diluted to the same concentration using RIPA buffer, loading buffer was added, samples were denatured, and 15 μg of protein per lane was loaded onto a SurePAGE 4-20% Bis-Tris gel. Samples were separated via electrophoresis in MOPS running buffer at 180 V for 100 min. […] Fluorescence was detected using the Odyssey CLx Imaging System, and the data were analyzed with Empiria Studio Software and GraphPad Prism 9. […]
# BaF3_SVD = experiment: Cell growth inhibition assay (CellTiter-Glo), BaF3_SVD; assay type: cell-based
# Experimental: Cells were seeded in a 96-well plate (Corning 3610) with 90 μL of culture medium per well, and plates were incubated at 37° C. overnight. A 1,000× DMSO stock solution of the desired compound was prepared the following day. A compound dilution plate was prepared by diluting the stock solution 1:100 in the corresponding cell culture medium, 10 μL of the diluted compound solution was added to each 96-well plate well containing the seeded cells. Then, the cells were cultured at 37° C. for three days following compound treatment, 100 μL of CellTiter-Glo reagents (Promega G7573) was added to each well of the 96-well plate. The content of the wells was mixed by shaking continuously for 10 min, and luminescence was measured using Envision (PerkinElmer). The data were analyzed with GraphPad Prism 9 (see FIG. 50).
# Table 6, Table 7, and Table 8 list the cell growth inhibition results, where Gls0 represents the compound concentration to cause 50% cell growth inhibition in comparison with DMSO.
# T1 sequence (P00533 25-1210): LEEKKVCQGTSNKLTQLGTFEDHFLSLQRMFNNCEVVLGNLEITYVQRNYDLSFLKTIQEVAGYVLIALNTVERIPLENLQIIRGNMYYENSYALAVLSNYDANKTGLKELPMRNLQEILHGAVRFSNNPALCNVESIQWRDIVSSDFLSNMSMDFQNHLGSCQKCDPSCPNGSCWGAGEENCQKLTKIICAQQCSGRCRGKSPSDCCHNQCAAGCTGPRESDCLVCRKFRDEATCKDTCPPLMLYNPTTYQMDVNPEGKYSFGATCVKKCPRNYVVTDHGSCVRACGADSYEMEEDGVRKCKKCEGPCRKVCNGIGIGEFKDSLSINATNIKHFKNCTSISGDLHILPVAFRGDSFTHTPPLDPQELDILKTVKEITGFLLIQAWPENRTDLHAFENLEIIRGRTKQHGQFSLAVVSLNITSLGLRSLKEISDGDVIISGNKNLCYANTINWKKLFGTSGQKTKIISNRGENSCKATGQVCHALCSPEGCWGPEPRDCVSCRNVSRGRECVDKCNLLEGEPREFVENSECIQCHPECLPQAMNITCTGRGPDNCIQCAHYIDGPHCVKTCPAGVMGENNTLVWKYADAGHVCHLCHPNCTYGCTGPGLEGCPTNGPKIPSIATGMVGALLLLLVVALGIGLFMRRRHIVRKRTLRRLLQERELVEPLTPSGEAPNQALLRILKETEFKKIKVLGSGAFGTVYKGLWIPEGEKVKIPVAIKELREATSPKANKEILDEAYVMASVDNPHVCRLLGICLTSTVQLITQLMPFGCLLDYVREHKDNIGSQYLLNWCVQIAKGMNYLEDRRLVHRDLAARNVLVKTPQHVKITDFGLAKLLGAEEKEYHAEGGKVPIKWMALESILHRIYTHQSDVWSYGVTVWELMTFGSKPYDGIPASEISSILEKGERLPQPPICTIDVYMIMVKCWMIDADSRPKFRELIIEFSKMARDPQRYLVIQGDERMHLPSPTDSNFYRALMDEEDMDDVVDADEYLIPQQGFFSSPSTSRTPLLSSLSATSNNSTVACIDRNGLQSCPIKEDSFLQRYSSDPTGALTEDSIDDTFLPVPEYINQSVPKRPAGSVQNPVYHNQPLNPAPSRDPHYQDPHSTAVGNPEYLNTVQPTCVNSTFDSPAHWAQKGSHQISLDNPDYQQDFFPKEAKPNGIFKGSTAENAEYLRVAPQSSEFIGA
compound,measurement,setting,value
"CCc1cc(Nc2ncc(Br)c(Nc3ccc4nccnc4c3NS(C)(=O)=O)n2)c(OC)cc1N1CCC(N2CCN(CCc3cccc4c3n(CC)c(=O)n4C3CCC(=O)NC3=O)CC2)CC1 (stereo not drawn) [Compound 11, N-(6-((5-bromo-2-((4-(4-(4-(2-(1-(2,6-dioxopiperidin-3-yl)-3-ethyl-2-oxo-2,3-dihydro-1H-benzo[d]imidazol-4-yl)ethyl)piperazin-1-yl)piperidin-1-yl)-5-ethyl-2-methoxyphenyl)amino)pyrimidin-4-yl)amino)quinoxalin-5-yl)methanesulfonamide]",DC50,NCl-H292 (EGFR_WT),> 1000 nM
same,Potency in cell growth inhibition compared with Compound A (BaF3_SVD),"BaF3_SVD; BaF3_SVD, comparison with Compound A, in words",significantly increased potency
same,GI50,"BaF3_SVD; Table 7, BaF3_SVD cells",106 nM
